# According to US20250206732A1, “COMPOUNDS AND METHODS FOR THE TARGETED DEGRADATION OF KRAS” (Arvinas Operations, Inc., priority 2022, published 2025):
# Assays:
# [1] = biological target: T1, AsPC-1 HiBiT-KRASG12D (Homo sapiens, UniProt P01116, G12D); test: HiBiT degradation assay (G12D), AsPC-1 HiBiT-KRASG12D cells; assay type: cell-based; conditions: 24 hours treatment; for DC50: AsPC-1 HiBiT-KRASG12D cells, HiBiT luminescence; for Dmax: ASPC1, AsPC-1 HiBiT-KRASG12D cells, maximum degradation observed
# T1 construct: insert the HiBiT tag onto the N-terminus of one or more of the endogenous KRAS alleles; endogenous in cells; host or cells: AsPC-1 (ATCC CRL-1682), CRISPR-Cas9 knock-in clone, one tagged allele
# Summary of the method: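 AsPC-1 cells carried a CRISPR knock-in of an N-terminal HiBiT tag on endogenous KRAS G12D. After 24 h compound treatment at 37 °C (triplicate), viability was read by alamar blue (4 h, fluorescence, normalized to DMSO). HiBiT-KRAS levels were then measured by Nano-Glo HiBiT lytic luminescence after 45 min at room temperature.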
# [2] = biological target: T2, SW1573 HiBiT-KRASG12C (Homo sapiens, UniProt P01116, G12C); test: HiBiT degradation assay (G12C), SW1573 HiBiT-KRASG12C cells; assay type: cell-based; conditions: 24 hours treatment; for DC50: HiBiT luminescence; for Dmax: maximum degradation observed;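 as to DC50: Letter grades: C is 1000 to 3000 nM and D is above 3000 nM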
# T2 construct: expressed in transfected cells
# Description: Reagents. SW1573 (CRL-2170), AsPC-1 (CRL-1682), and SW620 (CCL-227) cells were purchased from ATCC. SW1573 cells are homozygous for the G12C mutation in KRAS, AsPC-1 cells are homozygous for the G12D mutation, and SW620 cells are homozygous for the G12V mutation. SW1573 cells were cultured in DMEM+F12+Glutamax (+Sodium Bicarbonate, +sodium pyruvate, ThermoFisher scientific, #10565) supplemented with 10% FBS (ThermoFisher scientific, #2060357) and 1% Antibiotic-Antimycotic (ThermoFisher scientific, #15240096). AsPC-1 cells were cultured in GIBCO RPMI-1640 (ThermoFisher scientific, catalog #61870-036 with Glutamax, No HEPES, No Na Pyruvate) supplemented with 10% FBS (ThermoFisher scientific, catalog #2060357) and 1× Penicillin-Streptomycin (ThermoFisher scientific, catalog #15140122, 10000 U/ml, 100×). SW620 cells were cultured in DMEM Glutamax (ThermoFisher scientific, catalog #10566016) supplemented with 10% FBS (ThermoFisher scientific, catalog #2060357) and 1× Penicillin-Streptomycin (ThermoFisher scientific, catalog #15140122, 10000 U/ml, 100×). For degradation assays, 384 well plates were used. Alamar blue was purchased from ThermoFisher scientific (A50101) and used according to manufacturer instructions. The Nano-Glo® HiBiT Lytic Detection System and Nano-Glo® HiBiT Blotting System were purchased from Promega (#N3050 and #N2410) and used according to manufacturer instructions.
# HiBiT-tagged cell line generation. To create the SW1573 HiBiT-KRASG12C cell line, the nucleotide sequence encoding the 11 amino acid HiBiT tag from Promegal was appended to the N-terminus of the KRASG12C coding sequence. This synthesized DNA was cloned into a modified pcDNA3.1 vector under the control of the thymidine kinase (TK) promoter. This HiBiT-KRASG12C expressing plasmid was transfected into parental SW1573 cells and colonies were selected using 400 μg/mL zeocin. The resulting clonal lines were screened for expression of HiBiT-KRASG12C protein using Nano-Glo® HiBiT Blotting System. A luminescent band of the correct size for HiBiT-KRASG12C was detected in several clones. Clone E6 was selected for further studies.
# HiBiT degradation assays (G12C and G12D). Either SW1573 HiBiT-KRasG12C or AsPC-1 HiBiT-KRasG12D cells were plated at 9000 or 15,000 cells/well in a 384 well plate (Corning #3770). Compounds of the present disclosure and positive controls were diluted in the appropriate cell media and applied to the plated cells resulting in a final concentration titration of 10 μM to 508 pM in 0.5% DMSO. Gambogic acid was used as a positive control for cytotoxicity and titrated from 10 μM to 78 nM. All assays were performed in triplicate. Cells were treated with compounds for 24 hours at 37° C. in an incubator containing 5% CO2. Following treatment, alamar blue was used to determine if any compounds led to a loss in cell viability after 24 hours. The 10× alamar blue reagent was added to a final concentration of 1× as recommended by the manufacturer and cells were returned to the incubator for 4 hours. Plates were then allowed to equilibrate to room temperature and fluorescence was measured using a Perkin-Elmer EnVision. After completion of the fluorescence read, the liquid from each well was removed and the cells were washed with PBS. The Nano-Glo® HiBiT detection reagent was prepared according to the manufacturer's instructions and added to each well after the PBS wash was removed. Following incubation at room temperature for 45 minutes, the luminescence was read using the ultra-sensitive luminescence aperture on the Envision instrument.
# Data analysis. Fluorescence values from the alamar blue treatment were normalized to the DMSO-only control for each compound titration. […]
# T2 sequence (P01116 1-188 isoform P01116-2 G12C): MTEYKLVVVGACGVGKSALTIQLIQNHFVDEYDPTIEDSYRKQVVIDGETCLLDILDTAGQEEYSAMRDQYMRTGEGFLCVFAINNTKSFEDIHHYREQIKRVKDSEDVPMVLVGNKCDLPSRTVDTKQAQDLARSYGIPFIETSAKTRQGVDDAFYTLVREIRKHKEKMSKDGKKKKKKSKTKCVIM
# T1 sequence (P01116 1-188 isoform P01116-2 G12D): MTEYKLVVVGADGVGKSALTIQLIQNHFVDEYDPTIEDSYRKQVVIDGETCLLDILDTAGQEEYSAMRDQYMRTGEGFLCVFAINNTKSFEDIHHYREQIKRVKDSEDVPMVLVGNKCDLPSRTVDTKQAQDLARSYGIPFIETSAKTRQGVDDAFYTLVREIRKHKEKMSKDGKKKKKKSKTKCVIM
DC50 [1],DC50 [2],Dmax [2],SMILES,Dmax [1]
> 3 µM,1 to 3 µM,20 to 60%,"C#Cc1cccc2cc(O)cc(-c3ncc4c(N5CC6CCC(C6)C5)nc(OCCN5CCC(COCC(=O)N[C@H](C(=O)N6C[C@H](O)C[C@H]6C(=O)N[C@@H](C)c6ccc(-c7scnc7C)cc6)C(C)(C)C)CC5)nc4c3F)c12 [Compound 17, (2S,4R)-1-[(2S)-2-[[2-[[1-[2-[4-(3-azabicyclo[3.2.1]octan-3-yl)-7-(8-ethynyl-3-hydroxy-1-naphthyl)-8-fluoro-pyrido[4,3-d]pyrimidin-2-yl]oxyethyl]-4-piperidyl]methoxy]acetyl]amino]-3,3-dimethyl-butanoyl]-4-hydroxy-N-[(1S)-1-[4-(4-methylthiazol-5-yl)phenyl]ethyl]pyrrolidine-2-carboxamide]",–
< 0.6 µM,≤ 0.6 µM,80 to 100%,"CCc1cccc2cc(O)cc(-c3ncc4c(N5CCCCCC5)nc(OC[C@@]56CCCN5[C@H](COC(=O)N5CCN(c7cc([C@H](C(=O)N8C[C@H](O)C[C@H]8C(=O)N[C@@H](C)c8ccc(-c9scnc9C)cc8)C(C)C)on7)CC5)CC6)nc4c3F)c12 [Compound 42, [(3S,7aS)-7a-({[4-(azepan-1-yl)-7-(8-ethyl-3-hydroxynaphthalen-1-yl)-8-fluoropyrido[4,3-d]pyrimidin-2-yl]oxy}methyl)-hexahydro-1H-pyrrolizin-3-yl]methyl 4-{5-[(2R)-1-[(2S,4R)-4-hydroxy-2-{[(1S)-1-[4-(4-methyl-1,3-thiazol-5-yl)phenyl]ethyl]carbamoyl}pyrrolidin-1-yl]-3-methyl-1-oxobutan-2-yl]-1,2-oxazol-3-yl}piperazine-1-carboxylate]",80 to 100%
> 3 µM,1 to 3 µM,20 to 60%,"CCc1cccc2cc(O)cc(-c3ncc4c(N5CC6CCC(C6)C5)nc(OCCN5CCC(COCC(=O)N[C@H](C(=O)N6C[C@H](O)C[C@H]6C(=O)N[C@@H](C)c6ccc(-c7scnc7C)cc6)C(C)(C)C)CC5)nc4c3F)c12 [Compound 19, (2S,4R)-1-[(2S)-2-[[2-[[1-[2-[4-(3-azabicyclo[3.2.1]octan-3-yl)-7-(8-ethyl-3-hydroxy-1-naphthyl)-8-fluoro-pyrido[4,3-d]pyrimidin-2-yl]oxyethyl]-4-piperidyl]methoxy]acetyl]amino]-3,3-dimethyl-butanoyl]-4-hydroxy-N-[(1S)-1-[4-(4-methylthiazol-5-yl)phenyl]ethyl]pyrrolidine-2-carboxamide]",–
> 3 µM,> 3 µM,–,"CCc1cccc2cc(O)cc(-c3ncc4c(N5CC6CCC(C5)N6)nc(OCCN5CCC(COCC(=O)N[C@H](C(=O)N6C[C@@H](O)C[C@H]6C(=O)N[C@@H](C)c6ccc(-c7scnc7C)cc6)C(C)(C)C)CC5)nc4c3F)c12 [Compound 10, (2S,4S)-1-[(2S)-2-[[2-[[1-[2-[4-(3,8-diazabicyclo[3.2.1]octan-3-yl)-7-(8-ethyl-3-hydroxy-1-naphthyl)-8-fluoro-pyrido[4,3-d]pyrimidin-2-yl]oxyethyl]-4-piperidyl]methoxy]acetyl]amino]-3,3-dimethyl-butanoyl]-4-hydroxy-N-[(1S)-1-[4-(4-methylthiazol-5-yl)phenyl]ethyl]pyrrolidine-2-carboxamide]",–
> 3 µM,> 3 µM,–,"C#Cc1cccc2cc(O)cc(-c3ncc4c(N5CC6CCC(C6)C5)nc(OCCN5CCC(COc6cc([C@H](C(=O)N7C[C@H](O)C[C@H]7C(=O)N[C@@H](C)c7ccc(-c8scnc8C)cc7)C(C)C)on6)CC5)nc4c3F)c12 [Compound 18, (2S,4R)-1-[(2R)-2-[3-[[1-[2-[4-(3-azabicyclo[3.2.1]octan-3-yl)-7-(8-ethynyl-3-hydroxy-1-naphthyl)-8-fluoro-pyrido[4,3-d]pyrimidin-2-yl]oxyethyl]-4-piperidyl]methoxy]isoxazol-5-yl]-3-methyl-butanoyl]-4-hydroxy-N-[(1S)-1-[4-(4-methylthiazol-5-yl)phenyl]ethyl]pyrrolidine-2-carboxamide]",–
< 0.6 µM,> 3 µM,–,"CCc1cccc2cc(O)cc(-c3ncc4c(N5CCCCCC5)nc(OC[C@@]56CCCN5[C@H](COC(=O)N5CCN(c7cc([C@@H](C(=O)N8C[C@H](O)C[C@H]8C(=O)N[C@@H](C)c8ccc(-c9scnc9C)cc8)C(C)C)on7)CC5)CC6)nc4c3F)c12 [Compound 44, [(3S,7aS)-7a-({[4-(azepan-1-yl)-7-(8-ethyl-3-hydroxynaphthalen-1-yl)-8-fluoropyrido[4,3-d]pyrimidin-2-yl]oxy}methyl)-hexahydro-1H-pyrrolizin-3-yl]methyl 4-{5-[(2S)-1-[(2S,4R)-4-hydroxy-2-{[(1S)-1-[4-(4-methyl-1,3-thiazol-5-yl)phenyl]ethyl]carbamoyl}pyrrolidin-1-yl]-3-methyl-1-oxobutan-2-yl]-1,2-oxazol-3-yl}piperazine-1-carboxylate]",< 20%

SMILES,DC50 [1],DC50 [2],Dmax [2],Dmax [1]
"Cc1ncsc1-c1ccc([C@H](C)NC(=O)[C@@H]2C[C@@H](O)CN2C(=O)[C@@H](c2cc(OCC3CCN(CCOc4nc(N5CC6CCC(C5)N6)c5cnc(-c6cc(O)cc7cccc(Cl)c67)c(F)c5n4)CC3)no2)C(C)C)cc1 [Compound 40, (2S,4R)-1-[(2R)-2-(3-{[1-(2-{[7-(8-chloro-3-hydroxynaphthalen-1-yl)-4-{3,8-diazabicyclo[3.2.1]octan-3-yl}-8-fluoropyrido[4,3-d]pyrimidin-2-yl]oxy}ethyl)piperidin-4-yl]methoxy}-1,2-oxazol-5-yl)-3-methylbutanoyl]-4-hydroxy-N-[(1S)-1-[4-(4-methyl-1,3-thiazol-5-yl)phenyl]ethyl]pyrrolidine-2-carboxamide]",< 0.6 µM,> 3 µM,–,80 to 100%
"Cc1ncsc1-c1ccc([C@H](C)NC(=O)[C@@H]2C[C@@H](O)CN2C(=O)[C@@H](c2cc(OCC3CCN(CCOc4nc(N5CC6CCC(C5)N6)c5cnc(-c6cc(O)cc(Cl)c6C(C)C)c(F)c5n4)CC3)no2)C(C)C)cc1 [Compound 41, (2S,4R)-1-[(2R)-2-[3-({1-[2-({7-[3-chloro-5-hydroxy-2-(propan-2-yl)phenyl]-4-{3,8-diazabicyclo[3.2.1]octan-3-yl}-8-fluoropyrido[4,3-d]pyrimidin-2-yl}oxy)ethyl]piperidin-4-yl}methoxy)-1,2-oxazol-5-yl]-3-methylbutanoyl]-4-hydroxy-N-[(1S)-1-[4-(4-methyl-1,3-thiazol-5-yl)phenyl]ethyl]pyrrolidine-2-carboxamide]",< 0.6 µM,> 3 µM,20 to 60%,20 to 60%
CCc1cccc2cc(O)cc(-c3ncc4c(N5CC6CCC(C5)N6)nc(OC[C@@]56CCCN5[C@H](COC(=O)N5CCN(c7cc([C@H](C(=O)N8C[C@H](O)C[C@H]8C(=O)N[C@@H](C)c8ccc(-c9scnc9C)cc8)C(C)C)on7)CC5)CC6)nc4c3F)c12 [Compound 5],< 0.6 µM,≤ 0.6 µM,60 to 80%,80 to 100%
